Series [1] can be described thus: Drug metabolism in monkey plasma assessed as unchanged compound at 120 mins postinjection relative to control. It is filed as ADME, organism-based, Macaca mulatta. The settings on record: rhesus monkey, read-out: Stability.
The target of series [2] is 5-hydroxytryptamine receptor 2A (Rattus norvegicus, UniProt P14842). The experiment in a line: Binding affinity to Wistar rat cortex membrane homogenate 5-HT2A receptor incubated for 90 mins by liquid scintillation counter analysis. It is filed as cell membranes.
Sequence of 5-hydroxytryptamine receptor 2A (Rattus norvegicus, UniProt P14842) (P14842 whole entry): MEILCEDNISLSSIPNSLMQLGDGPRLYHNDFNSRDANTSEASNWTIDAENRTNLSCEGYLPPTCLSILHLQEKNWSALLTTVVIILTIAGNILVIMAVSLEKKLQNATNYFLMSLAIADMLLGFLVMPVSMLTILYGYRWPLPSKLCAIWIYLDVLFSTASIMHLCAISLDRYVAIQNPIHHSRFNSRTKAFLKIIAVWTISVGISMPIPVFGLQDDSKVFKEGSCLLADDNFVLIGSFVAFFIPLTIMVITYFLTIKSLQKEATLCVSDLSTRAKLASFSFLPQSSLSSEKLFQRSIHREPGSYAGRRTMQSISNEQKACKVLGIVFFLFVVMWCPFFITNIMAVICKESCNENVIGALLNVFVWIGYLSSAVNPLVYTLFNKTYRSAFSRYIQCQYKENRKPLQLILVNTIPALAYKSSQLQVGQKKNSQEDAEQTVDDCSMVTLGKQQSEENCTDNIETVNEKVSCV
A short description of series [3]: Drug biodistribution in rat brain incubated for 30 mins by autoradiographic analysis. It is filed as ADME, organism-based. Particulars: in vivo, 0.5 h.
Series [4] can be described thus: Ratio of drug uptake in cynomolgus monkey cingulate gyrus to cerebellum measured at 87.5 mins postinjection. It is filed as ADME, organism-based, Macaca fascicularis. The settings on record: in vivo, 1.458 h.
The target of series [5] is T1, Alpha-1A adrenergic receptor (Homo sapiens, UniProt P35348).
T1 sequence (P35348 whole entry): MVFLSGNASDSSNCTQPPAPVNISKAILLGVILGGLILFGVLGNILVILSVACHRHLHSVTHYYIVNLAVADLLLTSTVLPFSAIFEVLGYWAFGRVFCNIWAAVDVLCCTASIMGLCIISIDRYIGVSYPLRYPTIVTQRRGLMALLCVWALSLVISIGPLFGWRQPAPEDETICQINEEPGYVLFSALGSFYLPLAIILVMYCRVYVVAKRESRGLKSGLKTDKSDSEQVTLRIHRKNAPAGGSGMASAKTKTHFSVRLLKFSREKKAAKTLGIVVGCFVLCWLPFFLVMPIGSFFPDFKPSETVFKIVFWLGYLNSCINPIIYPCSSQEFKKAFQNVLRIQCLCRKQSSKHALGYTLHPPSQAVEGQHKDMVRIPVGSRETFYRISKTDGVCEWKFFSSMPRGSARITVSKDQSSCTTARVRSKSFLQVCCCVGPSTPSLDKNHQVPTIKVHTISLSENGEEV
As to the kind of experiment: Binding affinity to alpha 1A adrenergic receptor (unknown origin) assessed as inhibition constant.

The target of series [6] is T2, 5-hydroxytryptamine receptor 7 (Homo sapiens, UniProt P34969). The experiment in a line: Binding affinity to 5-HT7 receptor (unknown origin) assessed as inhibition constant.
T2 sequence (P34969 whole entry): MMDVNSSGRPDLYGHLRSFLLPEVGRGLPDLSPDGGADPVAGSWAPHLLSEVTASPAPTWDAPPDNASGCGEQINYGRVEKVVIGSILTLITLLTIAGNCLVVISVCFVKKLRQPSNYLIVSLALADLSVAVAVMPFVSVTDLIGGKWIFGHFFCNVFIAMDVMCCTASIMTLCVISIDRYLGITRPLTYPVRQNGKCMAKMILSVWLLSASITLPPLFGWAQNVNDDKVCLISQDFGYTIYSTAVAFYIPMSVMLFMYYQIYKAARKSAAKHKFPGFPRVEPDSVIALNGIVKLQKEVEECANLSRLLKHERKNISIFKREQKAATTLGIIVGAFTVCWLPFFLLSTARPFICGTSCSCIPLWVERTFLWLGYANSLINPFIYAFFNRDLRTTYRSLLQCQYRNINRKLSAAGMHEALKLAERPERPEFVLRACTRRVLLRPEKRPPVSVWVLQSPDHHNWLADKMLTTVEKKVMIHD
The target of series [7] is D(4) dopamine receptor (Homo sapiens, UniProt P21917). As to the kind of experiment: Binding affinity to D4 receptor (unknown origin) assessed as inhibition constant.
Sequence of D(4) dopamine receptor (P21917 whole entry): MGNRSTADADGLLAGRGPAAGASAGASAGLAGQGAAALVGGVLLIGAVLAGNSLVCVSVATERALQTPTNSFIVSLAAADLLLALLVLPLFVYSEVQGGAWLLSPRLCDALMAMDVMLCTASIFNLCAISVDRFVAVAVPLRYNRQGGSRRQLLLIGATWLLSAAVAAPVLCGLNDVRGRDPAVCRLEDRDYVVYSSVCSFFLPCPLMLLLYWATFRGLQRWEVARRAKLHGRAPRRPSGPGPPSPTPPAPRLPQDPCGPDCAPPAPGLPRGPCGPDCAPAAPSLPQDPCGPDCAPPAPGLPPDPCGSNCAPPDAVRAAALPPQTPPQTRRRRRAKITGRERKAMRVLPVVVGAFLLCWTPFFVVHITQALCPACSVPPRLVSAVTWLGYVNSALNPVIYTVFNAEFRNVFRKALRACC
In series [8] the target is T3, 5-hydroxytryptamine receptor 1A (Homo sapiens, UniProt P08908).
T3 sequence (P08908 whole entry): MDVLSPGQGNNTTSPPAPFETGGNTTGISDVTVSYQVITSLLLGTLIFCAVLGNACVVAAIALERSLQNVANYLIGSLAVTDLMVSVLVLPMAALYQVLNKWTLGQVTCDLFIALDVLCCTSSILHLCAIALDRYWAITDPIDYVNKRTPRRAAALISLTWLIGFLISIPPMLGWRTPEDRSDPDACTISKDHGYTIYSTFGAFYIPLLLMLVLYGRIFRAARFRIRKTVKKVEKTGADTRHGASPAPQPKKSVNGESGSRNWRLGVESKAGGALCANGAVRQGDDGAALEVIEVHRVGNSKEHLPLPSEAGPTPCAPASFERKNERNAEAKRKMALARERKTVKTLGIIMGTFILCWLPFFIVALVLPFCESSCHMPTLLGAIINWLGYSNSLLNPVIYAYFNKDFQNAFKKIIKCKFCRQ

For series [9], the target named is 5-hydroxytryptamine receptor 7 (Rattus norvegicus, UniProt P32305). The experiment in a line: Binding affinity to rat 5-HT7 receptor assessed as inhibition constant.
Sequence of 5-hydroxytryptamine receptor 7 (Rattus norvegicus, UniProt P32305) (P32305 whole entry): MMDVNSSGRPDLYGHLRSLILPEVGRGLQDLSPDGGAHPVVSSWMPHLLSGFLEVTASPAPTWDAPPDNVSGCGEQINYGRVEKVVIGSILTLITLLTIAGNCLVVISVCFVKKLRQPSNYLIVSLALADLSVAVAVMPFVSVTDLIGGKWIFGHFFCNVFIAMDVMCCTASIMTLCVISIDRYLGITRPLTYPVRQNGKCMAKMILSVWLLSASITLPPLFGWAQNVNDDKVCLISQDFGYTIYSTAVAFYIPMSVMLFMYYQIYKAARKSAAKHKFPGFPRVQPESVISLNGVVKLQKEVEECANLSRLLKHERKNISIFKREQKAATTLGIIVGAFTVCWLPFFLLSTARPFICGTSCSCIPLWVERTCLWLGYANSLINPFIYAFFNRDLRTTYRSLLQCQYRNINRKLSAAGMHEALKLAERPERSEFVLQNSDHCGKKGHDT
Series [10] in a line: Ratio of drug uptake in rhesus monkey temporal cortex to cerebellum assessed as non-displaceable binding potential. Type of series: ADME, tissue-based, Macaca mulatta. Particulars: in vivo.
Series [11] has as its target T2, 5-hydroxytryptamine receptor 7. As to the kind of experiment: Binding affinity to human 5-HT7 receptor expressed in HEK293 cells incubated for 1 hr by 96 microwell plate. The settings on record: filed as agonist. Type of series: cell-based.
For series [12] the following is noted: plasma, 10 min.
Description: Drug metabolism in plasma (unknown origin) assessed as parent compound remaining by measuring total radioactivity at 10 mins by HPLC analysis
Series [13] can be described thus: Ratio of drug uptake in rat temporal cortex to cerebellum by measuring radioactivity at 20 mins postinjection. It is filed as ADME, organism-based. The settings on record: in vivo.
A short description of series [14]: Ratio of drug uptake in rat temporal cortex to cerebellum by measuring radioactivity at 10 mins postinjection. Type of series: ADME, organism-based. The settings on record: in vivo.
The target in series [15] is 5-hydroxytryptamine receptor 1A (Homo sapiens) (UniProt P08908). The experiment in a line: Binding affinity to 5-HT1A receptor (unknown origin). Particulars: filed as agonist.
The target in series [16] is 5-hydroxytryptamine receptor 2A (Homo sapiens, UniProt P28223). The experiment in a line: Binding affinity to human 5-HT2A transfected in human tsA201 cells assessed as inhibition constant incubated for 2 hrs by scintillation counter analysis. It is filed as cell-based.
Sequence of 5-hydroxytryptamine receptor 2A (Homo sapiens, UniProt P28223) (P28223 whole entry): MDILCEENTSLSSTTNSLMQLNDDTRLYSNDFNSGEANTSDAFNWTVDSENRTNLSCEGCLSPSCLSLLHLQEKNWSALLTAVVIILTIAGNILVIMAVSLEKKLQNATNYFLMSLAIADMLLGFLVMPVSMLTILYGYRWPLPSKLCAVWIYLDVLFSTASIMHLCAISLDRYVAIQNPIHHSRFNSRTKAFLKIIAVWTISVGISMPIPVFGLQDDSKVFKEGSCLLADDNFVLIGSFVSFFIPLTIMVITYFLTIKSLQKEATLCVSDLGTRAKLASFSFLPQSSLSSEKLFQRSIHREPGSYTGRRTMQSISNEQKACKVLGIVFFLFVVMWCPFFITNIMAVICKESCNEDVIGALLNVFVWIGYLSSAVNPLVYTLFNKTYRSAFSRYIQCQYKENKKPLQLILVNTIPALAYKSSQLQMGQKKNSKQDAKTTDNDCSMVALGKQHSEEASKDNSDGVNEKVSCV
Series [17] in a line: Drug uptake in cynomolgus monkey brain treated with WAY-100635 followed by compound 878 Ci/mmol, iv measured at 2.5 mins postinjection by PET imaging relative to control. It is filed as ADME, organism-based, Macaca fascicularis. The settings on record: in vivo.
A short description of series [18]: Drug uptake in cynomolgus monkey brain treated with WAY-100635 followed by compound 230 Ci/mmol, iv measured at 2.5 mins postinjection by PET imaging relative to control. It is filed as ADME, organism-based, Macaca fascicularis. Particulars: in vivo.
In series [19] the target is T4, 5-hydroxytryptamine receptor 1A (Rattus norvegicus, UniProt P19327).
T4 sequence (P19327 whole entry): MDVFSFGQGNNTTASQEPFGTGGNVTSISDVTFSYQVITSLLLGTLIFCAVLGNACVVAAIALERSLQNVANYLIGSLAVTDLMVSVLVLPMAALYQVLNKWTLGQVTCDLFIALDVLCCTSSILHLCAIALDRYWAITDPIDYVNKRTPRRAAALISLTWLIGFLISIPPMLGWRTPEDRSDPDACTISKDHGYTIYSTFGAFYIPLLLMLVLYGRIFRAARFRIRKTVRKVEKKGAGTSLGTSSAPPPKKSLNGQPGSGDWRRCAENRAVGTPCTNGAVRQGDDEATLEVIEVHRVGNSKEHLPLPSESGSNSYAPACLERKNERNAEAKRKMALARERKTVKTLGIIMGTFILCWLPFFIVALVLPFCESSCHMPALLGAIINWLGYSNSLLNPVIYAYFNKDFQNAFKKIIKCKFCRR
The experiment in a line: Displacement of [3H]-8-OH-DPAT from Sprague-Dawley rat hippocampal membrane 5HT1A receptor incubated for 10 mins by liquid scintillation analysis. Type of series: cell membranes, Hippocampus.

Series [20] can be described thus: Biodistribution in rat assessed as drug uptake measured as percentage of injected dose per gram of tissue relative to control. It is filed as ADME, organism-based. Particulars: in vivo.
Series [21] can be described thus: Ratio of drug uptake in rat hippocampus to cerebellum by measuring radioactivity at […], iv. Type of series: ADME, tissue-based. The settings on record: in vivo, dose 25-30 mCi.
Series [22] concerns the target T4, 5-hydroxytryptamine receptor 1A. The experiment in a line: Displacement of [3H]-8-OH-DPAT from rat hippocampal membrane 5HT1A receptor by CEREP assay. Type of series: cell membranes, Hippocampus. On the technique in general: In a radioligand displacement assay an active substance lowers the binding of a labelled ligand.
In series [23] the target is Alpha-1A adrenergic receptor (Homo sapiens) (UniProt P35348). As to the kind of experiment: Binding affinity to alpha 1A adrenergic receptor (unknown origin). Particulars: filed as antagonist.

Regarding `CN1CCN(c2cc(F)cc3c(=O)cc(C(=O)Nc4ccc(N5CCOCC5)c([18F])c4)oc23)CC1`, in [1], the remaining at 2 h is greater than 40%.

As usually defined, the Ki is the equilibrium dissociation constant of an inhibitor or competing ligand from its target. Turning to `[O-][S+](c1ccc(F)cc1)C1CCN(CCc2ccc(F)cc2F)CC1` (configuration not stated), the Ki in series [2] turned out to be 198 nM.

`[O-][S+](c1ccc([18F])cc1)C1CCN(CCc2ccc(F)cc2F)CC1` (configuration not stated) gave a Drug uptake in [3] of 30%.

`[11CH3]Oc1ccccc1N1CCN(CC[C@@H](C(=O)N2CCCCCC2)c2ccccc2)CC1`: in series [4], the Ratio amounted to 6.4.

For `COc1cccc(N2CCN(CCCCn3ncc(=O)n(C)c3=O)CC2)c1`, the Ki in series [5] turned out to be 6.75 nM; in [6], 12.9 nM; in [7], 21.8 nM; in [8], 0.15 nM.

Consider `CCC1(CCCCN2CCN(c3cccc(OCCF)c3)CC2)C(=O)Nc2ccccc21` (configuration not stated), for which, in [9], the Ki was determined as 13 nM.

Consider `COc1ccccc1N1CCN(CCN(c2ccccn2)C(=O)[C@H]2CC[C@@H](C[18F])CC2)CC1`, for which, in [10], the Ratio came out at 0.58.

Consider `COc1ccccc1N1CCN(CCN(c2ccccn2)C(=O)[C@H]2CC[C@H](C[18F])CC2)CC1`, for which the Ratio in series [10] is reported as 7.7. Also, in [8], the Ki is 0.9 nM.

`CCn1cncc1-c1c[nH]c2ccc(OC)cc12` gave a K in series [11] of 30 nM.

`O=[11C](C1CCCCC1)N(CCN1CCN(c2ccccc2O)CC1)c1ccccn1`: the Stability in series [12] is reported as less than 10%.

Regarding `COc1ccccc1N1CCN(CCN(c2cccc(Br)n2)[11C](=O)N2CCCCC2)CC1`, the Ratio in series [13] is listed as 3; in [14], 1.9.

In [15], `COc1ccccc1N1CCN(CC(O)COc2cccc3c2SCCC3)CC1` (configuration not stated) returned a K of 5 nM.

Turning to `COc1cc(CCNCc2ccccc2OC)c(OCC[18F])cc1Br`, the Ki in [16] is less than 1.2 nM.

In the case of `CC1(C(=O)N(CCN2CCN(c3ccccc3O[11CH3])CC2)c2ccccn2)CCCCC1`, the Drug uptake in [17] was 3%. Besides, the inhibition constant (Ki) in series [8] is 2.3 nM.

In series [8], `COc1ccccc1N1CCN(CC(C)N(c2ccccn2)[11C](=O)C2CCCCC2)CC1` (racemic) displayed a Ki of 0.91 nM. Also, the Drug uptake in series [18] came to 4.8%.

Molecule `Cc1ccc2c(c1O)-c1cccc3c1C(C2)N(C)CC3` (configuration not stated) came in with an inhibitory constant (Ki) in series [19] of 0.45 nM.

As for `COc1ccccc1N1CCN(CCCCN(C)C(=O)c2cnc(S[11CH3])n2C)CC1`, the Drug uptake in series [20] worked out at 0.37 % ID/g.

Consider `O=C(C1CCCCC1)N(CCN1CCN(c2ccccc2OCC[18F])CC1)c1ccccn1`, for which the Ratio in [21] was determined as 5.5.

For orientation: IC50 means the concentration at which inhibition is half-maximal. As to `COc1ccccc1N1CCN(CCCCN(C)C(=O)c2cnc(SC)n2C)CC1`, the IC50 in series [22] was 0.86 nM. In series [23], the K stood at 5.45 nM.

The values above are taken from ChEMBL document CHEMBL5108009, “Positron Emission Tomography (PET) Imaging Tracers for Serotonin Receptors” (J Med Chem, 2022).
